Test results published in article PMC3098923 (Bioorganic & medicinal chemistry letters, 2011).

How the values were obtained:
human TLR7 = target: T1, human TLR7 (Homo sapiens, UniProt Q9NYK1); assay: human TLR7-specific reporter gene assay; assay type: cell-based
T1 sequence (Q9NYK1 27-1049): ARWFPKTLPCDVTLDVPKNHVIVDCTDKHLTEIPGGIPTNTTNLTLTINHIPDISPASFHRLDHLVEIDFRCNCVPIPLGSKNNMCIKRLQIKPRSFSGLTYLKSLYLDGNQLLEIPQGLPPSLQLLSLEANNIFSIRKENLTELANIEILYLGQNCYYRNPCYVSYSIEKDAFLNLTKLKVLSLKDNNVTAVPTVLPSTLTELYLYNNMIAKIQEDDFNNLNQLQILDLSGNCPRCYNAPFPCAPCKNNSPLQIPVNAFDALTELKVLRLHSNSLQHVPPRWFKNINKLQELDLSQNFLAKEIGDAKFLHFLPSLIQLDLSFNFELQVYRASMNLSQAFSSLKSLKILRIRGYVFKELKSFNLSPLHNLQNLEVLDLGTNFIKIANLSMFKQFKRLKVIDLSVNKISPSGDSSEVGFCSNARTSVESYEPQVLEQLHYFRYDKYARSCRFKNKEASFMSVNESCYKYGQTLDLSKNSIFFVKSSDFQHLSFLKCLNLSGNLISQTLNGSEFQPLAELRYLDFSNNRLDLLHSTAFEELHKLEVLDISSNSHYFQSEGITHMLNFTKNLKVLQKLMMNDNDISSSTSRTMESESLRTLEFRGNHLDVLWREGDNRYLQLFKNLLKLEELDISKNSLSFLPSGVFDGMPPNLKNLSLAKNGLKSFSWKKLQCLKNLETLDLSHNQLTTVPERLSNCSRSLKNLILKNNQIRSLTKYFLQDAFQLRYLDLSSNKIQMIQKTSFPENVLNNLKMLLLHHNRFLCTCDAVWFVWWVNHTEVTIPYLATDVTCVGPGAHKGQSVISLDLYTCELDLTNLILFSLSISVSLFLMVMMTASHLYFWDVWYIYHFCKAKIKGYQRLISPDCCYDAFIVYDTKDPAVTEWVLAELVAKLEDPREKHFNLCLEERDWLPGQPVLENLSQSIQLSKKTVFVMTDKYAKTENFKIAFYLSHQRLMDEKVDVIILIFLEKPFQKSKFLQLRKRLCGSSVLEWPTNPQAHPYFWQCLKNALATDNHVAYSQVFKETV

human PBMCs = assay: Induction of IFN-α, IFN-γ, IL-12 and IL-18 in human PBMCs, ELISA; assay type: cell-based
aqueous solubility = assay type: physicochemical

SMILES	TLR7-agonistic activity (in words) (human TLR7)	Th1-biased cytokine induction (IFN-α, IFN-γ, IL-12, IL-18) (human PBMCs)	aqueous solubility (aqueous solubility)
CCCCc1nc2c(N)nc3ccccc3c2n1Cc1ccc(CNC(=S)NCC(=O)NCC(=O)NCC(=O)OC)cc1 [compound 3]	active	–	–
CCCCc1nc2c(N)nc3ccccc3c2n1Cc1ccc(CNC(=O)CCN2C(=O)CC(SC[C@@H](NC(=O)CC[C@@H](N)C(=O)O)C(=O)NCC(=O)O)C2=O)cc1 (stereo partly shown) [6a]	completely inactive	–	–
CCCCc1nc2c(N)nc3ccccc3c2n1Cc1ccc(CN)cc1 [compound 1]	–	prominent Th1 bias	excellent
